# Test system: pERK after EGF stimulation in DLD1 cells
# Test: ERK phosphorylation assay (alphascreen pERK)
# Type: cell-based
# Conditions: Homo sapiens, DLD-1, 2 h compound, 200 ng/ml hEGF for 5 minutes, read-out: ERK phosphorylation inhibition IC50
# Protocol: Compounds were tested for their ability to inhibit pERK after EGF stimulation in DLD1 cells. Cells were seeded at 0.2 million cells per well in 96 well cell binding tissue culture plate in 100 μL complete media and were allowed to settle overnight (16 to 20 h). On the following day, cells were treated with various concentrations of test compounds for 2 h followed by stimulation with 200 ng/ml hEGF (diluted in PBS) for 5 minutes. Cells were then washed once with PBS and lysed in freshly prepared lysis buffer (provided with alphascreen surefire ERK1/2 p-T202/Y204 assay kit, cat no: TGRESB10K, Perkin Elmer). Lysis was carried out in plate shaker for 10-15 mins. Lysate was transferred to […] white opti-plate (Perkin Elmer) and alphascreen for pERK was carried out as per manufacturer's instructions. Plate was read after 2 h incubation in plate shaker at […] 300 RPM, 25-28° C. The difference between the unstimulated and stimulated Vehicle control is considered as 100% ERK phosphorylation, and % inhibition of compounds is calculated accordingly.
row,Structure (SMILES),IC50
1,"Cc1nc(NC(C)c2cccc(C(O)(CO)C(F)(F)F)c2F)c2cc3c(cc2n1)OC(C)(C)C(=O)N3C (racemic) [Compound 22, 4-(((R&S)-1-(2-Fluoro-3-((R&S)-1,1,1-trifluoro-2,3-dihydroxypropan-2-yl)phenyl)ethyl)amino)-2,6,8,8-tetramethyl-6H-[1,4]oxazino[3,2-g]quinazolin-7(8H)-one]",201 to 500 nM
2,"CO[C@]1(C)C(=O)N(C)c2cc3c(N[C@H](C)c4cccc(C(F)(F)[C@](C)(O)CO)c4F)nc(C)nc3cc21 (racemic) [Compound 103, (S/R)-4-(((R/S)-1-(3-((R/S)-1,1-difluoro-2,3-dihydroxy-2-methylpropyl)-2-fluorophenyl)ethyl)amino)-8-methoxy-2,6,8-trimethyl-6,8-dihydro-7H-pyrrolo[2,3-g]quinazolin-7-one]",201 to 500 nM
3,"Cc1nc(N[C@H](C)c2cccc(C(F)(F)[C@@](C)(O)CN(C)C)c2F)c2cc3c(cc2n1)C(C)(C)C(=O)N3C (racemic) [Compound 129b, 4-(((R)-1-(3-((S/R)-3-(dimethylamino)-1,1-difluoro-2-hydroxy-2-methylpropyl)-2-fluorophenyl)ethyl)amino)-2,6,8,8-tetramethyl-6,8-dihydro-7H-pyrrolo[2,3-g]quinazolin-7-one]",1 to 200 nM
4,"CNC[C@](C)(O)C(F)(F)c1cccc([C@@H](C)Nc2nc(C)nc3cc4c(cc23)N(C)C(=O)C4(C)C)c1F (racemic) [Compound 130b, 4-(((R)-1-(3-((S/R)-1,1-difluoro-2-hydroxy-2-methyl-3-(methylamino)propyl)-2-fluorophenyl)ethyl)amino)-2,6,8,8-tetramethyl-6,8-dihydro-7H-pyrrolo[2,3-g]quinazolin-7-one]",1 to 200 nM
5,"Cc1nc(N[C@H](C)c2cccc(C3CCCNC3)c2F)c2cc3c(cc2n1)C(C)(C)C(=O)N3C (mixture of isomers) [Compound 133, (R & S)-4-(((R)-1-(2-fluoro-3-((R & S)-piperidin-3-yl)phenyl)ethyl)amino)-2,6,8,8-tetramethyl-6,8-dihydro-7H-pyrrolo[2,3-g]quinazolin-7-one]",201 to 500 nM
6,"COC1(C)C(=O)N(C)c2cc3nc(C)nc(N[C@H](C)c4cc(N)cc(C(F)(F)F)c4)c3cc21 (mixture of isomers) [Compound 137, 4—(((R)-1-(3-amino-5-(trifluoromethyl)phenyl)ethyl)amino)-6-methoxy-2,6,8-trimethyl-6,8-dihydro-7H-pyrrolo[3,2-g]quinazolin-7-one]",1 to 200 nM
7,"Cc1nc(NC(C)c2cc(N)cc(C(F)F)c2)c2cc3c(cc2n1)OCC(=O)N3C (single isomer, unassigned) [Compound 5, (R/S)-4-((1-(3-Amino-5-(difluoromethyl)phenyl)ethyl)amino)-2,6-dimethyl-6H-[1,4]oxazino[3,2-g]quinazolin-7(8H)-one]",1 to 200 nM
8,"Cc1nc(N[C@H](C)c2cccc([C@@](O)(CO)C(F)(F)F)c2F)c2cc3c(cc2n1)OC(C)(C)C(=O)N3C (single isomer, unassigned) [Compound 22b, 4-(((R/S)-1-(2-fluoro-3-((R/S)-1,1,1-trifluoro-2,3-dihydroxypropan-2-yl)phenyl)ethyl)amino)-2,6,8,8-tetramethyl-6H-[1,4]oxazino[3,2-g]quinazolin-7(8H)-one]",201 to 500 nM
9,"Cc1nc(N[C@H](C)c2cccc(C(F)(F)C(C)(C)O)c2F)c2cc3c(cc2n1)O[C@@H](C(C)C)C(=O)N3C (single isomer, unassigned) [Compound 32a]",1 to 200 nM
10,"Cc1nc(N[C@H](C)c2cc(N)cc(C(F)(F)F)c2)c2cc3c(cc2n1)OCCN3CC1CCOC1 (single isomer, unassigned) [Compound 43]",1 to 200 nM
11,"Cc1nc(NC(C)c2cc(N)cc(C(F)F)c2)c2cc3c(cc2n1)C(C)(C)C(=O)N3C (single isomer, unassigned) [Compound 69, (R/S)-4-((1-(3-amino-5-(difluoromethyl)phenyl)ethyl)amino)-2,6,8,8-tetramethyl-6H-pyrrolo[2,3-g]quinazolin-7(8H)-one]",1 to 200 nM
12,"Cc1nc(N[C@H](C)c2cccc(C(F)(F)[C@](C)(O)CO)c2F)c2cc3c(cc2n1)C(C)(C)C(=O)N3C (single isomer, unassigned) [Compound 76b]",201 to 500 nM
13,"COC1(C)C(=O)N(C)c2cc3nc(C)nc(N[C@H](C)c4cccc(C(F)(F)C(C)(C)O)c4F)c3cc21 (single isomer, unassigned) [Compound 96b]",1 to 200 nM
14,"Cc1nc(N[C@H](C)c2cccc(C(F)(F)C(C)(C)O)c2F)c2cc3c(cc2n1)C(C)(F)C(=O)N3C (single isomer, unassigned) [Compound 116a]",201 to 500 nM
15,"Cc1nc(N[C@H](C)c2cccc(C(F)(F)C(C)(C)O)c2F)c2cc3c(cc2n1)[C@](C)(F)C(=O)N3C (single isomer, unassigned) [Compound 116b]",1 to 200 nM
16,"COCCC1(C)C(=O)N(C)c2cc3c(N[C@H](C)c4cccc(C(F)(F)C(C)(C)O)c4F)nc(C)nc3cc21 (single isomer, unassigned) [Compound 123b]",1 to 200 nM

row,Structure (SMILES),IC50
1,"COC1(C(F)(F)F)C(=O)N(C)c2cc3c(N[C@H](C)c4cccc(C(F)(F)C(C)(C)O)c4F)nc(C)nc3cc21 (single isomer, unassigned) [Compound 125a]",201 to 500 nM
2,"CO[C@]1(C(F)(F)F)C(=O)N(C)c2cc3c(N[C@H](C)c4cccc(C(F)(F)C(C)(C)O)c4F)nc(C)nc3cc21 (single isomer, unassigned) [Compound 125b]",1 to 200 nM
3,"CCC1(OC)C(=O)N(C)c2cc3c(N[C@H](C)c4cccc(C(F)(F)C(C)(C)O)c4F)nc(C)nc3cc21 (single isomer, unassigned) [Compound 126a]",1 to 200 nM
4,"CC[C@@]1(OC)C(=O)N(C)c2cc3c(N[C@H](C)c4cccc(C(F)(F)C(C)(C)O)c4F)nc(C)nc3cc21 (single isomer, unassigned) [Compound 126b]",201 to 500 nM
5,"COCC(C)(O)C(F)(F)c1cccc([C@@H](C)Nc2nc(C)nc3cc4c(cc23)N(C)C(=O)C4(C)C)c1F (single isomer, unassigned) [Compound 127a]",201 to 500 nM
6,"COCCC1(OC)C(=O)N(C)c2cc3c(N[C@H](C)c4cccc(C(F)(F)C(C)(C)O)c4F)nc(C)nc3cc21 (single isomer, unassigned) [Compound 132a]",1 to 200 nM
7,"Cc1nc(NC(C)c2cccc(C(F)(F)F)c2F)c2cc3c(cc2n1)C(C)(C)C(=O)N3C (single isomer, unassigned) [Compound 134, (R/S)-4-((1-(2-fluoro-3-(trifluoromethyl)phenyl)ethyl)amino)-2,6,8,8-tetramethyl-6,8-dihydro-7H-pyrrolo[2,3-g]quinazolin-7-one]",201 to 500 nM
8,"Cc1nc(N[C@H](C)c2cccc(C(F)(F)C(C)(C)O)c2F)c2cc3c(cc2n1)OCC(=O)N3C [Compound 3, (R)-4-((1-(3-(1,1-difluoro-2-hydroxy-2-methylpropyl)-2-fluorophenyl)ethyl)amino)-2,6-dimethyl-6H-[1,4]oxazino[3,2-g]quinazolin-7(8H)-one]",201 to 500 nM
9,"CCc1nc(N[C@H](C)c2cc(N)cc(C(F)(F)F)c2)c2cc3c(cc2n1)OCC(=O)N3C [Compound 14, (R)-4-((1-(3-amino-5-(trifluoromethyl)phenyl)ethyl)amino)-2-ethyl-6-methyl-6H-[1,4]oxazino[3,2-g]quinazolin-7(8H)-one]",1 to 200 nM
10,"Cc1nc(N[C@H](C)c2cccc(C(F)(F)C(C)(C)O)c2F)c2cc3c(cc2n1)OC(C)(C)C(N1CCOCC1)=N3 [Compound 26, (R)-1,1-Difluoro-1-(2-fluoro-3-(1-((2,8,8-trimethyl-7-morpholino-8H [1,4]oxazino[3,2-g]quinazolin-4-yl)amino)ethyl)phenyl)-2-methylpropan-2-ol]",201 to 500 nM
11,"Cc1nc(N[C@H](C)c2cccc(C(F)(F)C(C)(C)O)c2F)c2cc3c(cc2n1)OC(C)(C)C(=O)N3C [Compound 33, (R)-4-((1-(3-(1,1-Difluoro-2-hydroxy-2-methylpropyl)-2-fluorophenyl)ethyl)amino)-2,6,8,8-tetramethyl-6H-[1,4]oxazino[3,2-g]quinazolin-7(8H)-one]",1 to 200 nM
12,"Cc1nc(N[C@H](C)c2cccc(C(F)(F)C(C)(C)O)c2F)c2cc3c(cc2n1)n(C)c(=O)c(=O)n3C [Compound 40, (R)-4-((1-(3-(1,1-Difluoro-2-hydroxy-2-methylpropyl)-2-fluorophenyl)ethyl)amino)-2,6,9-trimethyl-6,9-dihydropyrazino[2,3-g]quinazoline-7,8-dione]",201 to 500 nM
13,"CCN1C(=O)C(C)(C)Oc2cc3nc(C)nc(N[C@H](C)c4cccc(C(F)(F)C(C)(C)O)c4F)c3cc21 [Compound 41, (R)-4-((1-(3-(1,1-difluoro-2-hydroxy-2-methylpropyl)-2-fluorophenyl)ethyl)amino)-6-ethyl-2,8,8-trimethyl-6H-[1,4]oxazino[3,2-g]quinazolin-7(8H)-one]",201 to 500 nM
14,"Cc1nc(N[C@H](C)c2cccc(C(F)(F)C(C)(C)O)c2)c2cc3c(cc2n1)OC(C)(C)C(=O)N3C [Compound 57, (R)-4-((1-(3-(1,1-difluoro-2-hydroxy-2-methylpropyl)phenyl)ethyl)amino)-2,6,8,8-tetramethyl-6H-[1,4]oxazino[3,2-g]quinazolin-7(8H)-one]",1 to 200 nM
15,"Cc1nc(N[C@H](C)c2cccc(C(F)(F)C(C)(C)O)c2F)c2cc3c(cc2n1)C(C)(C)C(=O)N3C1CC1 [Compound 65, (R)-6-cyclopropyl-4-((1-(3-(1,1-difluoro-2-hydroxy-2-methylpropyl)-2-fluorophenyl)ethyl)amino)-2,8,8-trimethyl-6,8-dihydro-7H-pyrrolo[2,3-g]quinazolin-7-one]",1 to 200 nM

# Reference: patent US20260209247A1, “Substituted Tricyclic Compounds” (Lupin Limited, priority 2019, published 2026)
